The record followed here is ChEMBL document CHEMBL5154907, “Discovery and Anti-Inflammatory Activity Evaluation of a Novel CDK8 Inhibitor through Upregulation of IL-10 for the Treatment of Inflammatory Bowel Disease In Vivo” (J Med Chem, 2022).

The source made the active and inactive calls.

The target in data set [1] is CDK8/Cyclin C (Homo sapiens, UniProt P49336). Put plainly: Inhibition of recombinant full length His tagged human CDK8/Cyclin C expressed in Baculovirus incubated for 60 mins in presence of ATP by ADP-Glo kinase assay. For orientation: In ADP-Glo the light output rises with the ADP produced.
CDK8/Cyclin C, sequence (P49336 whole entry): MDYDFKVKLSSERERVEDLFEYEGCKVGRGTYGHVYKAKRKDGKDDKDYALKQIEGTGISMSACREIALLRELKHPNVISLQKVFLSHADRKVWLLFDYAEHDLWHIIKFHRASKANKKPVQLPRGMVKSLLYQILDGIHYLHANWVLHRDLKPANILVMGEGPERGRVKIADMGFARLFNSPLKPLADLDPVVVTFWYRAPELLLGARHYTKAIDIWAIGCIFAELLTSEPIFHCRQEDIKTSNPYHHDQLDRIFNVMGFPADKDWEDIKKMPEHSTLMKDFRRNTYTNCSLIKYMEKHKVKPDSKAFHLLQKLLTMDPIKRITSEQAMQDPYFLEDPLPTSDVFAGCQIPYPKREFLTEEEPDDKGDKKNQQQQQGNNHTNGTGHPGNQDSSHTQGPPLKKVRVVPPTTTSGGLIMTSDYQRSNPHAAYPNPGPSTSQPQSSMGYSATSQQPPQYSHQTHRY
CDK8/Cyclin C, sequence (P24863 whole entry, further chain): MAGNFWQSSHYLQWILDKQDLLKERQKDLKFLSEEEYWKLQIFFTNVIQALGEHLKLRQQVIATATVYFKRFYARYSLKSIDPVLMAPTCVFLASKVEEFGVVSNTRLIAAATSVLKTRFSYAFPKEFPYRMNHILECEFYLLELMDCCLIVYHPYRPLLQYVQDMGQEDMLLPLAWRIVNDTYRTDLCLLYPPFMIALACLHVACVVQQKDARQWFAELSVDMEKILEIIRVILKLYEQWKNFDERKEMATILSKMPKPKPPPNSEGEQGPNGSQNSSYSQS
The test system of data set [2] is BMDC. The data set can be described thus: Anti-inflammatory activity against R848-stimulated mouse BMDC cells assessed as upregulation of IL-10 production by ELISA method. Format: functional, cell-based. Background: An ELISA detects its analyte on a solid surface through an enzyme-linked reagent.
Data set [3] addresses T1, Toll-like receptor 7 (Mus musculus) (UniProt P58681).
T1 sequence (whole entry): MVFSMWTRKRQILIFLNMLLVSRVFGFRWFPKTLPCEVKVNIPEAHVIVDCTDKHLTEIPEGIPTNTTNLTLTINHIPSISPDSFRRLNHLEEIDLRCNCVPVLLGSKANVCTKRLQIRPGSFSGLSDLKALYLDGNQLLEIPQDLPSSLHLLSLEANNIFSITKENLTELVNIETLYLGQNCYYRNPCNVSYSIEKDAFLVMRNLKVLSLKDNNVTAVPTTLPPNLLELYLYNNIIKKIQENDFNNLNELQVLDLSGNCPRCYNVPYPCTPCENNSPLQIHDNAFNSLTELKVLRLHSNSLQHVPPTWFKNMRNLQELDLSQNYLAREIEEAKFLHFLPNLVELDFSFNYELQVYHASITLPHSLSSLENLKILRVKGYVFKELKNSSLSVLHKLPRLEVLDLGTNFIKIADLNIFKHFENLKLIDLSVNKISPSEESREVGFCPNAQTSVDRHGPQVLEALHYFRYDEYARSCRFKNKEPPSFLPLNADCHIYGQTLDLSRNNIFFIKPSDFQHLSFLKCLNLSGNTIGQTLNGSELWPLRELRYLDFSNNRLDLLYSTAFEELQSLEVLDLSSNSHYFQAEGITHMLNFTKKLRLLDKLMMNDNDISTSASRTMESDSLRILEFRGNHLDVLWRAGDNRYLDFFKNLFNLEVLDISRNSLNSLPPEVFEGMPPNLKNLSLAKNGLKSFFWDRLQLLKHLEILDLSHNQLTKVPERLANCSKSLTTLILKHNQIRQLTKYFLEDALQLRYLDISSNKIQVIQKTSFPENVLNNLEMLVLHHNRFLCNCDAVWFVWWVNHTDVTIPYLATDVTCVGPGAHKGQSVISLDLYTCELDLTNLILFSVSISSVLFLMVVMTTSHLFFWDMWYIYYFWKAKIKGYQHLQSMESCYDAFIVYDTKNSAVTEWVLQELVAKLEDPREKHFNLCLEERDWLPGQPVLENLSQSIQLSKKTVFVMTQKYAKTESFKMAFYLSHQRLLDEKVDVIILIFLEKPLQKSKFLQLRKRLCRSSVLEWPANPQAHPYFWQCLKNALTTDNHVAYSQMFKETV
The data set can be described thus: Inhibition of TLR7 expression in R848-stimulated mouse BMDC cells at 1 to 4 uM treated for 2 hrs followed by R848 stimulation for 12 hrs by western blot analysis. To be noted: dose 1-4 µM, time 14.0 hrs, DDE = dose-dependent effect. It is filed as cell-based. Background: In western blotting, separated proteins are transferred to a membrane and probed.

The target in data set [4] is c-Jun N-terminal kinase (Mus musculus) (UniProt Q91Y86+Q9WTU6+Q61831). Put plainly: Inhibition of JNK phosphorylation in R848-stimulated mouse BMDC cells at 1 to 4 uM treated for 2 hrs followed by R848 stimulation for 12 hrs by western blot analysis. It is filed as cell-based. To be noted: dose 1-4 µM, time 14.0 hrs.
c-Jun N-terminal kinase (Mus musculus), sequence (Q61831 whole entry, looked up): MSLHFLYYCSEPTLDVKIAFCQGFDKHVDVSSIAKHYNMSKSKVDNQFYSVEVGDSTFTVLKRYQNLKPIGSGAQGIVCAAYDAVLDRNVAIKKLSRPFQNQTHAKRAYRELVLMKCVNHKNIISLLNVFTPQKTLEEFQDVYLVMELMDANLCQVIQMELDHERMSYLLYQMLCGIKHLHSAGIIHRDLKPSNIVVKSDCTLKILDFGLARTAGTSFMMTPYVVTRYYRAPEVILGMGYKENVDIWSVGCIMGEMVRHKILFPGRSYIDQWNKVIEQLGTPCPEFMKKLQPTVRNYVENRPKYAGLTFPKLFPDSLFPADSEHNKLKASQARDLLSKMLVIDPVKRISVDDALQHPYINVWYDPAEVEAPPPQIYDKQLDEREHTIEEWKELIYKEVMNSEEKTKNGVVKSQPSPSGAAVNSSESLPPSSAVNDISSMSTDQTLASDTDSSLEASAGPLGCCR
c-Jun N-terminal kinase (Mus musculus), sequence (Q91Y86 whole entry, looked up): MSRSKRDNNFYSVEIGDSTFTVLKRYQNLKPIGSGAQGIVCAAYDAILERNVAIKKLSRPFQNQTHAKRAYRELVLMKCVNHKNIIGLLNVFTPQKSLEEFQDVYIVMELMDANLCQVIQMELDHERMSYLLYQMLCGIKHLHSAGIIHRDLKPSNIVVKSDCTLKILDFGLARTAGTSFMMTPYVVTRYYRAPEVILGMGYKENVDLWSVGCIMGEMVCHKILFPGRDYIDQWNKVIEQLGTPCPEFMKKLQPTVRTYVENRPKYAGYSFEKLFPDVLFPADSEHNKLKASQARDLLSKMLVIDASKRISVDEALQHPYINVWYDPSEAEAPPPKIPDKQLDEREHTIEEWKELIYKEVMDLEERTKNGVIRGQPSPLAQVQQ
c-Jun N-terminal kinase (Mus musculus), sequence (Q9WTU6 whole entry, looked up): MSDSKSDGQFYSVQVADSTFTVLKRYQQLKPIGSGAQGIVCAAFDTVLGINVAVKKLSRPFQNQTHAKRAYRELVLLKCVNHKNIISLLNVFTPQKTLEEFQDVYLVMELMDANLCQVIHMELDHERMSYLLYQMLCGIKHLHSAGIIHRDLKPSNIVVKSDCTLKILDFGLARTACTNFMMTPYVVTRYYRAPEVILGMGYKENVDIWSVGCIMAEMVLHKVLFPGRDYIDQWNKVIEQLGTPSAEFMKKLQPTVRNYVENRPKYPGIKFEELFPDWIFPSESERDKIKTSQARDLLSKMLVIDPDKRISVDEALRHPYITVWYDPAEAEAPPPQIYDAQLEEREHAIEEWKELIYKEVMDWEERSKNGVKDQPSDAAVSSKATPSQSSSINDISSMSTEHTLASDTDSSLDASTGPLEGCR
Data set [5] concerns the target MAP kinase p38 (Mus musculus) (UniProt P47811+O08911+Q9WUI1+Q9Z1B7). The data set can be described thus: Inhibition of P38 phosphorylation in R848-stimulated mouse BMDC cells at 1 to 4 uM treated for 2 hrs followed by R848 stimulation for 12 hrs by western blot analysis. Format: cell-based. Conditions: dose 1-4 µM, time 14.0 hrs.
The nature of data set [6]: Acute toxicity in 12 hr fasted ICR mouse assessed as effect on kidney at 2000 mg/kg, po measured after 7 days by hematoxylin and eosin staining based histopathological analysis. It is filed as organism-based. Conditions: in vivo, 168 h, time 7 day.
A short description of data set [7]: Half life in Sprague-Dawley rat at 5 mg/kg, iv measured for 3 to 1440 mins by HPLC analysis. It is filed as ADME, organism-based. To be noted: in vivo, time 3-1440 min.
Data set [8] is described as follows: Tmax in Sprague-Dawley rat at 10 mg/kg, po measured for 3 to 1440 mins by HPLC analysis. Format: ADME, organism-based. Conditions: in vivo, time 3-1440 min.
The nature of data set [9]: MRT in Sprague-Dawley rat at 10 mg/kg, po measured for 3 to 1440 mins by HPLC analysis. It is filed as ADME, organism-based. Conditions: in vivo, time 3-1440 min.
Data set [10] concerns Mus musculus. Put plainly: Anti-inflammatory activity in DSS-induced C57BL/6 mouse model of inflammatory bowel disease assessed as increase in colon length at 5 to 20 mg/kg, po daily measured after 10 days. It is filed as functional, organism-based. To be noted: dose 5-20 mg/kg, time 10.0 day.
In data set [11] the test system is Mus musculus. The data set can be described thus: Anti-inflammatory activity in C57BL/6 mouse model of inflammatory bowel disease assessed as reduction in DSS-induced epithelium destruction in colon tissue at 5 to 20 mg/kg, po daily measured after 10 days by hematoxylin and eosin staining based histopathological analysis. It is filed as functional, organism-based. To be noted: dose 5-20 mg/kg, time 10.0 day.

Data set [12] concerns Mus musculus. Put plainly: Anti-inflammatory activity in C57BL/6 mouse model of inflammatory bowel disease assessed as reduction in DSS-induced cellular infiltration in colon tissue at 5 to 20 mg/kg, po daily measured after 10 days by hematoxylin and eosin staining based histopathological analysis. Format: functional, organism-based. Conditions: dose 5-20 mg/kg, time 10.0 day.

In data set [13] the test system is Mus musculus. The data set can be described thus: Anti-inflammatory activity in C57BL/6 mouse model of inflammatory bowel disease assessed as decrease in DSS-induced TNF-alpha levels in serum at 5 to 20 mg/kg, po daily measured after 10 days by ELISA method. Format: functional, organism-based. To be noted: dose 5-20 mg/kg, time 10.0 day.
Data set [14] relates to Mus musculus. The data set can be described thus: Anti-inflammatory activity in C57BL/6 mouse model of inflammatory bowel disease assessed as decrease in DSS-induced IL-6 levels in colon tissue at 5 to 20 mg/kg, po daily measured after 10 days by ELISA method. To be noted: dose 5-20 mg/kg, time 10.0 day. It is filed as functional, organism-based.
Data set [15] has as its system Mus musculus. Put plainly: Anti-inflammatory activity in C57BL/6 mouse model of inflammatory bowel disease assessed as decrease in DSS-induced TNF-alpha levels in colon tissue at 5 to 20 mg/kg, po daily measured after 10 days by ELISA method. To be noted: dose 5-20 mg/kg, time 10.0 day. It is filed as functional, organism-based.
Data set [16] concerns Mus musculus. The data set can be described thus: Anti-inflammatory activity in C57BL/6 mouse model of inflammatory bowel disease assessed as increase in DSS-induced IL-10 levels in colon tissue administered orally daily measured after 10 days by ELISA method. To be noted: dose 5-20 mg/kg, route po, time 10.0 day. Format: functional, organism-based.
For data set [17], the system named is Mus musculus. The data set can be described thus: Anti-inflammatory activity in C57BL/6 mouse model of inflammatory bowel disease assessed as suppression of DSS-induced NF-kappa-B p65 expression in colon tissue at 5 to 20 mg/kg, po measured after 10 days by western blot analysis. Format: functional, organism-based. To be noted: dose 5-20 mg/kg, time 10.0 day.

The test system of data set [18] is Mus musculus. Put plainly: Anti-inflammatory activity in C57BL/6 mouse model of inflammatory bowel disease assessed as decrease in DSS-induced ERK phosphorylation in colon tissue at 5 to 20 mg/kg, po measured after 10 days by western blot analysis. It is filed as functional, organism-based. Conditions: dose 5-20 mg/kg, time 10.0 day, DDE = dose-dependent effect.

The subject of data set [19] is Mus musculus. The data set can be described thus: Anti-inflammatory activity in C57BL/6 mouse model of inflammatory bowel disease assessed as decrease in DSS-induced JNK phosphorylation in colon tissue at 5 to 20 mg/kg, po measured after 10 days by western blot analysis. Format: functional, organism-based. To be noted: dose 5-20 mg/kg, time 10.0 day, DDE = dose-dependent effect.

The term IC50 denotes the concentration that gives 50% inhibition. What is called half-life is the time needed for the level to fall by half in the phase considered. Low readings indicate fast loss, high ones slow loss. By Tmax is commonly meant the time from dosing to the highest level. Usually MRT stands for the average time that molecules of a dose stay in the body. On to `CCc1ccccc1NC(=O)c1cncc(-c2ccc(C(=O)N3CCNCC3)cc2)c1`, for which the IC50 in data set [1] was 0.056 µM. Moreover, the outcome in data set [2], in data set [10], in data set [11], in [12], in data set [13] and in data set [14] was Active. Moreover, the result in [15], in [16] and in [17] was Active. Also, the inhibition result in [3] was “Dde”. The inhibition entry in data set [4] and in [5] was “Active” in each case. Also, the Activity result was “Non-Toxic” in data set [6], “Dde” in data set [18] and “Dde” in [19]. The same compound showed a half-life in data set [7] of 1.83 h. Besides, the time of peak concentration (Tmax) in data set [8] came out at 0.73 h. The same compound returned an MRT in data set [9] of 2.03 h.
